# Source: PubChem BioAssay (NCI)
#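 Cultured in 96-well plates, cells were exposed to test compound for 48 hours across five concentrations. Abbreviation: GI50, concentration required for 50% inhibition of growth. TGI marks complete inhibition of growth.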
# Key:
# Assay in all cases: NCI-60 cell line screen, 48 h
# 786-0 renal = test system: 786-0 renal
# DU-145 prostate = test system: DU-145 prostate
# RXF 393 renal = test system: RXF 393 renal
# NCI-H522 lung = test system: NCI-H522 lung
# M14 melanoma = test system: M14 melanoma
# EKVX NSCLC = test system: EKVX NSCLC
# SF-539 CNS = test system: SF-539 CNS
# MDA-MB-231 breast = test system: MDA-MB-231 breast
# NCI/ADR-RES ovarian = test system: NCI/ADR-RES ovarian
# SF-268 CNS = test system: SF-268 CNS
SMILES,GI50 (786-0 renal),TGI (786-0 renal),GI50 (DU-145 prostate),TGI (DU-145 prostate),GI50 (RXF 393 renal),TGI (RXF 393 renal),GI50 (NCI-H522 lung),TGI (NCI-H522 lung),GI50 (M14 melanoma),TGI (M14 melanoma),GI50 (EKVX NSCLC),TGI (EKVX NSCLC),GI50 (SF-539 CNS),TGI (SF-539 CNS),GI50 (MDA-MB-231 breast),TGI (MDA-MB-231 breast),GI50 (NCI/ADR-RES ovarian),TGI (NCI/ADR-RES ovarian),GI50 (SF-268 CNS),TGI (SF-268 CNS)
COc1ccc(COc2ccc(Cc3cnc(N)nc3N)cc2OC)cc1,> 25 µM,> 25 µM,> 25 µM,> 25 µM,8.21 µM,> 25 µM,> 25 µM,> 25 µM,> 25 µM,> 25 µM,> 16.2 µM,> 25 µM,> 25 µM,> 25 µM,23.1 µM,> 25 µM,> 19 µM,> 25 µM,> 25 µM,> 25 µM
C#Cc1cccc(NC(=O)C2CCCCN2C(=O)CCl)c1 (stereo not given),16.2 µM,32 µM,24.4 µM,> 82.5 µM,13.4 µM,34.4 µM,8.72 µM,24.4 µM,18.8 µM,74.9 µM,> 82.5 µM,> 82.5 µM,17.4 µM,49.4 µM,13.1 µM,28.7 µM,16.5 µM,47.3 µM,21.1 µM,75.2 µM
Cc1cc(C2CC(O)C(CO)O2)c(Br)cc1Br (stereo not given),> 100 µM,> 100 µM,> 100 µM,> 100 µM,> 100 µM,> 100 µM,> 100 µM,> 100 µM,> 100 µM,> 100 µM,84.5 µM,> 100 µM,> 100 µM,> 100 µM,58.5 µM,> 100 µM,> 100 µM,> 100 µM,> 100 µM,> 100 µM
CN1c2cccc[c]2[Sn]([CH3])([CH3])[c]2ccccc21,< 0.014 µM,0.124 µM,< 0.0131 µM,0.0988 µM,0.0279 µM,0.202 µM,0.0102 µM,0.0262 µM,< 0.0148 µM,0.0305 µM,< 0.01 µM,< 0.0249 µM,< 0.011 µM,0.0473 µM,< 0.0132 µM,0.165 µM,0.0132 µM,0.0491 µM,< 0.0178 µM,0.165 µM
Nc1nc(N)c2c(n1)NC(c1ccc(Cl)cc1)C1CCc3ccccc3C1=N2 (stereo not given),11.8 µM,24.1 µM,11.2 µM,23.3 µM,4.68 µM,19.1 µM,5.21 µM,20.9 µM,10.4 µM,22.1 µM,3.62 µM,21 µM,6.17 µM,19.6 µM,9.73 µM,21.8 µM,5.53 µM,18.2 µM,12.4 µM,26.9 µM
COc1cc(-c2cc(-c3ccc(Nc4nc(Nc5ccc(Cl)cc5)nc(Nc5ccc(Cl)cc5)n4)cc3)no2)cc(OC)c1OC,3.6 µM,20.1 µM,7.08 µM,> 100 µM,0.816 µM,7.08 µM,2.89 µM,> 100 µM,7.11 µM,> 100 µM,24.9 µM,> 100 µM,9.05 µM,> 100 µM,5.15 µM,> 100 µM,11.3 µM,> 100 µM,6.05 µM,> 100 µM
CC(=O)Nc1ccc2c(c1)[nH]c(=O)c1cc(NC(C)=O)ccc12,> 100 µM,> 100 µM,> 100 µM,> 100 µM,> 100 µM,> 100 µM,> 100 µM,> 100 µM,> 100 µM,> 100 µM,> 100 µM,> 100 µM,> 100 µM,> 100 µM,90.2 µM,> 100 µM,> 100 µM,> 100 µM,> 100 µM,> 100 µM
Cc1c(-c2c(F)cc(C(N)=O)c3[nH]c4c(c23)CC[C@H](C(C)(C)O)C4)cccc1-n1c(=O)c2cccc(F)c2n(C)c1=O,3.54 µM,> 100 µM,5.63 µM,> 100 µM,1.61 µM,5.31 µM,2.81 µM,32.9 µM,3.69 µM,66.1 µM,1.95 µM,> 100 µM,4.78 µM,33.4 µM,4.34 µM,> 100 µM,3.58 µM,> 100 µM,4.91 µM,> 100 µM
Cn1cc(-c2nc(-c3c[nH]c4ccccc34)cs2)c2cccnc21,0.525 µM,49.4 µM,0.564 µM,> 100 µM,0.368 µM,15.9 µM,0.0586 µM,6.67 µM,0.234 µM,> 54.2 µM,0.907 µM,> 100 µM,0.282 µM,1.44 µM,1.29 µM,> 100 µM,0.11 µM,3.37 µM,0.689 µM,> 100 µM
